Here are results for 9 molecules from PMC10628858, “Investigation of new ferrocenyl-artesunate derivatives as antiparasitics” (Dalton Transactions (Cambridge, England : 2003), 2023).

For series [1], the system named is clinically resistance (CQ-R) isolates of P. falciparum. On the set-up: method as in PMID 21894260. The following applies: cited from earlier work.
The next series concerns P. falciparum, NF54. As to the kind of experiment: P. falciparum growth inhibition assay (Malstat). Format: cell-based, Plasmodium falciparum. Particulars: 72 h, maximum concentration tested 6000 nM, three independent experiments in triplicate, ± SEM, read-out: IC50 against P. falciparum, NF54. As for the experimental part:
The antimalarial activities of C1 to C4 and F1 to F3 were determined against the wild-type drug sensitive strain of P. falciparum, NF54. […]. Further, a close link between activity and oxidation potentials of the drugs was found. The lower the oxidation potential of the ferrocene moiety, the higher the activity of the final compound, giving directions for future compound development.
The drugs were prepared as 10 mM stocks in sterile DMSO. The drugs were then diluted using freshly prepared growth medium to the desired testing concentrations. Chloroquine and artesunate were used as standards. A full dose–response was preformed using a 96-well plate assay and the IC50 values determined. The maximum concentration tested was 6 μM which was then serially diluted 2-fold in growth media. The plates were incubated at 37 °C for 72 h at 3% O2 and 4% CO2. After 72 h the wells were resuspended and 15 μL of the suspension was transferred to a duplicate plate containing 100 μL of Malstat reagent and 25 μL of nitroblue tetrazolium solution. The plates were allowed 20 minutes in the dark to develop and the absorbance of each well was measured using UV-Vis at 620 nm.

Series [2] deals with T. gondii (ΔKu80::mNeonGreen). The experiment in a line: T. gondii growth inhibition assay (mNeonGreen fluorescence). It counts as cell-based, Toxoplasma gondii. On the procedure: […]. The rate of hydrolysis of C2 and C4 is closely correlated to the activity seen against T. gondii, such that the more readily the complex separates into its constituents, parts the better the overall activity.
To further investigate whether the accumulation of ROS was implicated in the MoA, the growth inhibition studies were repeated in the presence of the ROS scavenger N-acetyl cysteine (NAC) (Table 5).
Growth inhibition assays were performed in black, clear-bottomed 96 well plates preseeded with Human foreskin fibroblasts (HFFs) as described previously.[48] ΔKu80:mNeonGreen T. gondii were counted using a hemeocytometer and media from the host-cell seeded plate was aspirated and replaced with either 200 μL of D3 or 200 μL of media + 5000 parasites per well. Infected cells were incubated for 2 hours at 37 °C with 5% CO2 to allow for invasion. Following this, the media was removed and replaced with 100 μL fresh media. 100 μL of media containing 100 μM of the indicated drug in sterile DMSO was added and serially diluted. The parasites were then incubated for four days at 37 °C with 5% CO2 then flourescense read using the PHERAstar microplate reader. After removal of background, fluorescence values were normalised to untreated and plotted. Data analysis and non-linear regression was performed in Prism.

The subject of series [3] is T. gondii. As to the kind of experiment: Determination of intracellular ROS levels with CellROX by flow cytometry. Particulars: 5 μM, 6 hours, 50 000 parasites, vs untreated. Format: cell-based, Toxoplasma gondii. As for the experimental part:
Since both ferrocene and artesunate are able to generate ROS, we attempted to quantify the intracellular ROS levels in the parasite using CellROX, a compound which fluoresces in the presence of ROS. Treatment with artesunate was included as positive control as previous studies have linked artesunate treatment to ROS accumulation.[44] The parasites were treated with 5 μM of complexes C1, C3 and C4, and incubated for 6 hours. […] Since T. gondii rely predominately on heme biosynthesis as opposed to incorporation of heme from host hemoglobin, the concentration of iron present in the parasite is lower.[45] But, by incorporating an iron center in the molecule the slower activation may be circumvented leading to quicker cell death and a decreased CellROX reading.
Fig. 5 CellROX fluorescence quantified by flow cytometry from 50 000 parasites. T. gondii were untreated (grey) or treated for 6 hours with 5 μM compounds (blue) or artesunate (red) as a positive control.
Intracellular parasites were treated with 5 μM of the drug and incubated at 37 °C with 5% CO2 for either 18 hours or 6 hours. The parasites were released from host cells by scraping and syringing followed by passing through 3 μm filters to remove host-cell debris. The parasites were spun down at 6000 RPM for 10 minutes and resuspended in 500 μL PBS. 100 μL of the parasite suspension was placed in a FACS tube and a stock solution of CellROX dye in PBS (1 : 125 dilution) was added to this. This was then incubated in the dark at 37 °C for 1 hour and then read using a BD Celesta. Parasites were gated on forward and side scatter and on mNeonGreen fluorescence and histograms of Cy5 signal presented. Data analysis was performed using Flowjo.

Series [4] can be described thus: Cyclic voltammetry (oxidation/reduction potentials). Format: physicochemical. The following applies: Ag/AgCl electrode, scan rate 100 mV s^−1, 0.100 M [NBu4][PF6] in MeCN.
Series [5] can be described thus: Aqueous stability (hydrolysis) by UV-Vis kinetic scan in 10% MeOH (aq). It counts as physicochemical. The following applies: change in absorbance at 254 nm over one hour, ExpDec1 fit. On the procedure:
Since biological systems are comprised of water, the behavior and stability of a drug in aqueous media is important. To determine the stability, each complex was dissolved in MeOH and then diluted to 10% MeOH (aq). The solutions were then monitored by UV-Vis spectroscopy using a kinetic scan in the range 190–1100 nm over 1 hour. […] Hydrolysis was also supported by RP-HPLC in which new peaks emerged corresponding to the starting ferrocene precursors, F2 and F4. […] […] The major difference being between C1/C2 and C3/C4 is the nature of the linkage either being an ester or an amide bond. It is expected that the hydrolysis of C2 would occur quicker due to the more labile nature of the ester bond.
UV-Vis studies were performed by dissolving each complex in methanol to a concentration of 1 mM. This was then diluted using distilled water in a 10% methanol/water mixture giving a final concentration of 100 μM. The complexes were then monitored using a kinetic scan between the range 190–1100 nm scanning each minute over the course of one hour. […]

Series [6] is described as follows: Kinetic aqueous solubility, turbidimetric assay. The following applies: for solubility at 4 h: aqueous buffer, kinetic from dmso stock, absorbance 620 nm. It counts as physicochemical. On the procedure:
The kinetic solubility of the complexes was determined by means of a turbidimetric assay. The complexes were first dissolved in dimethyl sulfoxide (DMSO) which was then serially diluted in either phosphate buffered saline (PBS) or 4-(2-hydroxyethyl)-1-piperazineethanesulfonic acid (HEPES). The extent of precipitation was then measured using the absorbance at 620 nm.
PBS was prepared by dissolving one PBS tablet in 200 mL of distilled water at 25 °C yielding a buffered solution containing 10 mM phosphate buffer, 3.0 mM KCl and 140 mM NaCl. The pH was then confirmed to be at 7.4 with a pH meter. A 0.025 M HEPES buffer was prepared by dissolving HEPES free acid 5.00 mmol in distilled water (±180 mL) and titrating the solution with 0.100 M NaOH until a pH 7 was reached, the volume was then made up to 200 mL using distilled water. A 10.0 mM stock of each drug was prepared in DMSO. […] 4 μL of the drugs was then pipetted into a 96-well plate loaded with 196 μL of either the desired buffer solution or DMSO. The test plates were then incubated at 37 °C for 4 hours following which the UV-Vis absorbance was measured at 620 nm and the absorbances corrected by subtracting the blank.

For another series, the system named is HEK293 cells. The experiment in a line: MTT cell viability assay, HEK293. Particulars: 48 h. Format: cell-based, human. As for the experimental part: (§1) To assess the cytotoxicity of the four compounds a MTT cell viability assay using human embryonic kidney (HEK293) and human prostatic (PNT1A) cell lines were performed. […] The long chain compounds C1 and C3 were also shown to be non-cytotoxic towards the HEK293 cell line.
(§2) The immortalised human prostatic epithelial cell line, PNT1A (Sigma Aldrich, 95012614) was cultured in RPMI-1640 containing 10% foetal calf serum (Life Technologies, South Africa). The human embryonic kidney cell line HEK293 (ATCC) was cultured in DMEM (Life Technologies, South Africa). Both cell lines were cultured at 37 °C under 5% CO2 with 1% penicillin and streptomycin. Cancer cell cytotoxicity was evaluated using the MTT viability assay according to our previous method.[49] Briefly, cells were seeded at a density of 3 × 10^3 cells per well in 96-well plates and allowed to settle overnight. A 100 mM stock of C1/C2 and a 50 mM stock solution of C3/C4 in DMSO was prepared from which dilutions were made. The compound was then added to the cells in triplicate to obtain the indicated concentrations and 0.1% DMSO. Controls included cells treated with […] DMSO alone. After 48 h, 10 μL of 5 mg mL^−1 MTT (3-(4,5-dimethylthiazol-2-yl)-2,5-diphenyltetrazolium bromide) (Sigma-Aldrich) was added, and incubated with the cells for 4 h, followed by addition of 100 μL 10% SLS, 0.01 M HCL. The plates were read at 595 nm on a Multiscan FC plate reader (Thermo Scientific) and the data was fitted to a variable slope dose–response curve using Graphpad prism v6 to obtain the cytotoxicity IC50. The assay was repeated independently three times where inhibition was observed.

A further series deals with PNT1A cells. As to the kind of experiment: MTT cell viability assay, PNT1A. Format: cell-based, human. Particulars: 48 h. On the procedure: as §1, §2
Series [7] has as its system T. gondii. On the set-up: method as in PMID 32968076. Particulars: read-out: IC50 against T. gondii; cited from earlier work.

Values joined by “and” are separate entries in the source; they are usually repeats but may differ in a detail not shown here. Identical values can stand only once. Like-named read-outs stand apart in the source and are kept apart here.

In general, IC50 refers to the concentration needed to halve the response being measured. As a reminder, the solubility is how much of the substance goes into solution per volume.

Consider `CN(C)Cc1ccc[c-]1CNc1ccnc2cc(Cl)ccc12.[Fe+2].c1cc[cH-]c1` (centres unmarked) [Ferroquine, ferroquine], for which the “Activity against CQ-R isolates of P. falciparum” value in [1] is “less than 30 nM”.
With `OC[c-]1cccc1.[Fe+2].c1cc[cH-]c1` [Compound F2, ferrocene methanol], the IC50 with P. falciparum, NF54 is 3400 ± 96 nM.
As to `C[C@H]1[C@H](OC(=O)CCC(=O)O)O[C@@H]2O[C@@]3(C)CC[C@H]4[C@H](C)CC[C@@H]1[C@@]24OO3` [Artesunate, artesunate], the half-inhibitory concentration (IC50) in series [2] (Toxoplasma gondii, 96 h, read-out: IC50 against T. gondii) is 200 ± 6 nM; in series [2] (Toxoplasma gondii, read-out: IC50 + NAC against T. gondii) it was 310 ± 28 nM; with P. falciparum, NF54 (Plasmodium falciparum, NF54), 3 ± 1 nM. The “Change in CellROX signal (intracellular ROS)” value in the series on T. gondii [3] is “increase”.
Regarding `CC1CCC2C(C)C(OC(=O)CCC(=O)OC[c-]3cccc3)OC3OC4(C)CCC1C32OO4.[Fe+2].c1cc[cH-]c1` (centres unmarked) [Compound C2], in [4], the “E 1/2” value is 0.503 V, the “E Ox” value was 0.561 V, the “E Red” value is reported as 0.445 V and the ΔE is reported as 0.116 V. For the same molecule, in series [5], the Half-life is listed as 3.0 ± 0.16 min and the “Rate constant (hydrolysis)” value stood at 0.23 ± 0.013 min⁻¹. In addition, in [6] (turbidimetric assay, buffer not named), the “Solubility range” value lay in the range of 23 to 47 µg/mL. Also, the 50% inhibitory concentration (IC50) in [2] (four days, in HFF host cells, three independent experiments in triplicate, ± SEM, read-out: IC50 against T. gondii) worked out at 280 ± 22 nM. Moreover, the 50% inhibitory concentration (IC50) with P. falciparum, NF54 was found to be 19 ± 4 nM. In the series on HEK293 cells, this molecule showed an IC50 of 53000 ± 5700 nM. For the same molecule, in the series on PNT1A cells, the IC50 is over 100000 nM.
For `NCCNC(=O)[c-]1cccc1.[Fe+2].c1cc[cH-]c1` [Compound F3, N-(2-aminoethyl)ferrocenamide], in the series on P. falciparum, NF54, the IC50 was over 6000 nM.
As to `C[C@H]1[C@@H](O)O[C@@H]2O[C@@]3(C)CC[C@H]4[C@H](C)CC[C@@H]1[C@@]24OO3` [DHA, dihydroartemisinin], the IC50 in the series with T. gondii [7] is about 66 nM.
Consider `[Fe+2].c1cc[cH-]c1.c1cc[cH-]c1` [Ferrocene, reference compound], for which, in [4], the “E 1/2” value stood at 0.446 V, the “E Ox” value was found to be 0.499 V, the “E Red” value came out at 0.393 V and the ΔE amounted to 0.106 V.
Turning to `O=C(NCCO)[c-]1cccc1.[Fe+2].c1cc[cH-]c1` [Compound F1, N-(Hydroxyethyl)ferrocenamide], the half-maximal inhibitory concentration (IC50) in the series with P. falciparum, NF54 is over 6000 nM.
As to `COC(=O)[C@H]1[C@H]2C[C@@H]3c4[nH]c5cc(OC)ccc5c4CCN3C[C@H]2C[C@@H](OC(=O)c2cc(OC)c(OC)c(OC)c2)[C@@H]1OC` [Reserpine, reference compound], the solubility at 4 h in series [6] (HEPES buffer with 2% DMSO, HEPES pH 7, 37 °C, read-out: Aqueous solubility range, HEPES) is 40 µM to 80 µM and 24 µg/mL to 50 µg/mL; in [6] (phosphate buffered saline (PBS) with 2% DMSO, PBS pH 7.4, 37 °C, read-out: Aqueous solubility range, PBS), 20 µM to 40 µM and 12 µg/mL to 24 µg/mL.
